Test system: hypogastric nerve stimulation-induced increases in intraurethral pressure and phenylephrine-induced increases in diastolic blood pressure
Experiment: In vivo intraurethral and blood pressure assay in anesthetized dog
Settings: anesthetized male mongrel dog, i.v. bolus, increasing doses
Procedure: The following describes an in vivo assay for measuring the relative effect of test compounds on hypogastric nerve stimulation-induced increases in intraurethral pressure and phenylephrine-induced increases in diastolic blood pressure in anesthetized dog.
Male Mongrel dogs (10 to 20 kg) were-fasted for 12 to 18 hours and anesthetized with phenobarbital sodium (36 mg/kg, i.v.). An endotracheal tube was inserted and thereafter the lungs were mechanically ventilated with room air. The right femoral vein was isolated and cannulated with two polyethylene cannulae, one for the administration of a continuous infusion of phenobarbital sodium (5 to 10 mg/kg/hr) and the other for bolus administration of test substances. The right femoral artery was isolated and cannulated to the abdominal aorta with a fluid filled polyethylene cannula connected to an external pressure transducer for monitoring diastolic aortic pressure (DAP). The bladder was exposed via a ventral midline abdominal incision and emptied of urine through a 22 gauge needle. The bladder was cannulated through a stab incision with a water filled balloon catheter connected to an external pressure transducer for monitoring prostatic intraurethral pressure (IUP). The right hypogastric nerve (HGN) was carefully isolated and attached to a Dastre's electrode for nerve stimulation. […]

SMILES: COc1cc2nc(N3CCN(C(=O)c4ccco4)CC3)nc(N)c2cc1OC [prazosin]
- inhibition of HGN stimulation-induced increases in IUP and PE-induced increases in DAP: inhibited increases in IUP and DAP in similar fashion
